How the values were obtained:
MRP1 variants = MRP1 variants (Homo sapiens, UniProt P33527); assay: Vanadate-dependent nucleotide trapping by MRP1 variants in Sf9 membranes; conditions: pretreatment with 1 mM
MRP1-MDR1 chimeras = assay type: biochemical, human; conditions: pretreatment with 1 mM
Procedure: (§1) The filters were washed twice with 0.5 ml of cold transport buffer, and filter-bound radioactivity was measured in scintillation fluid (Optifluor, Packard). ATP-dependent transport was calculated by subtracting the activity values obtained with AMP from those in the presence of ATP.
Covalent photoaffinty labeling of the proteins was performed with Mg-8-azido-[α-^32P)-ATP in the presence of vanadate as a trapping agent (set Materials and Methods).

co-expressed ΔMRP1+L0 = co-expressed ΔMRP1+L0 (Homo sapiens, UniProt P33527); assay: ATP-dependent tracer (LTC4, NEM-GS) uptake in Sf9 membrane vesicles containing co-expressed ΔMRP1 and L0; conditions: read-out: Km for transport of NEM-GS
co-expressed ΔMRP1+L0, sequence (P33527 281-1531, stated change not applied): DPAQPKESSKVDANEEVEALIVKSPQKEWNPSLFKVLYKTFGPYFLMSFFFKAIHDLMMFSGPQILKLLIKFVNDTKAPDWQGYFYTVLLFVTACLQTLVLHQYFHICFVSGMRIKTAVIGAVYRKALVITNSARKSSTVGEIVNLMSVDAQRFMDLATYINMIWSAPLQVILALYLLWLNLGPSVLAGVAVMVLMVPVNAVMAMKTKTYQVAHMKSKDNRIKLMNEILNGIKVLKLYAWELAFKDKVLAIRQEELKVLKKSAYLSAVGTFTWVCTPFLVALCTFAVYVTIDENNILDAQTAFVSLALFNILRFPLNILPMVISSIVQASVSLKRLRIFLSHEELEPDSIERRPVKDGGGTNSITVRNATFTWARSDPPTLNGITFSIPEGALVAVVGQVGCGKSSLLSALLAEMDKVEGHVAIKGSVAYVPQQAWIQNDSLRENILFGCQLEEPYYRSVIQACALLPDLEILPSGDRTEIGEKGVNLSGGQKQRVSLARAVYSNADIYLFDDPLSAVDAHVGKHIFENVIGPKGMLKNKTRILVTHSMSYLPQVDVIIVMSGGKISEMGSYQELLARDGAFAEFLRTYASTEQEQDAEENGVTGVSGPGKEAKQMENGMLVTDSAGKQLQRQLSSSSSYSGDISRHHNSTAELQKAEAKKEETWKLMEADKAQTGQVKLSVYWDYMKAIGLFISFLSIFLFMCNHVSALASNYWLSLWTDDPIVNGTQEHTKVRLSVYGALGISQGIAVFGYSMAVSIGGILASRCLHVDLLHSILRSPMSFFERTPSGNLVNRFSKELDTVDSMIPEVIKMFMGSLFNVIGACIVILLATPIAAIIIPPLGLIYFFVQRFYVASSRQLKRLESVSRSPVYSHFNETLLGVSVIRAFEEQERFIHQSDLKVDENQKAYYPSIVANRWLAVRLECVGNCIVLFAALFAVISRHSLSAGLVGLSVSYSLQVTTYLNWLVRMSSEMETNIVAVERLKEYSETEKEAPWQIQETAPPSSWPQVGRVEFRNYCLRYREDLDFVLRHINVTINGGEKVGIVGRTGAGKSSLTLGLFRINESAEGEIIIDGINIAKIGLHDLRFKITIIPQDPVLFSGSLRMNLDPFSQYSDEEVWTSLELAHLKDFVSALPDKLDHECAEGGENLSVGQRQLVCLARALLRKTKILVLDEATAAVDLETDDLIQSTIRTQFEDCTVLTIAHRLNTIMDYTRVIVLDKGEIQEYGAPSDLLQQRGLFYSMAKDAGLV
co-expressed ΔMRP1+L0, sequence (P33527 204-281, stated change not applied): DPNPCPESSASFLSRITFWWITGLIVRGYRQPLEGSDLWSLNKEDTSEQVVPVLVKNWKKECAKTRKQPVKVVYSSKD
Procedure: as §1

MRP1 = MRP1 (Homo sapiens, UniProt P33527); assay: ATP-dependent tracer (LTC4, NEM-GS) uptake in Sf9 membrane vesicles containing MRP1; conditions: 37° C.
MRP1, sequence (P33527 whole entry): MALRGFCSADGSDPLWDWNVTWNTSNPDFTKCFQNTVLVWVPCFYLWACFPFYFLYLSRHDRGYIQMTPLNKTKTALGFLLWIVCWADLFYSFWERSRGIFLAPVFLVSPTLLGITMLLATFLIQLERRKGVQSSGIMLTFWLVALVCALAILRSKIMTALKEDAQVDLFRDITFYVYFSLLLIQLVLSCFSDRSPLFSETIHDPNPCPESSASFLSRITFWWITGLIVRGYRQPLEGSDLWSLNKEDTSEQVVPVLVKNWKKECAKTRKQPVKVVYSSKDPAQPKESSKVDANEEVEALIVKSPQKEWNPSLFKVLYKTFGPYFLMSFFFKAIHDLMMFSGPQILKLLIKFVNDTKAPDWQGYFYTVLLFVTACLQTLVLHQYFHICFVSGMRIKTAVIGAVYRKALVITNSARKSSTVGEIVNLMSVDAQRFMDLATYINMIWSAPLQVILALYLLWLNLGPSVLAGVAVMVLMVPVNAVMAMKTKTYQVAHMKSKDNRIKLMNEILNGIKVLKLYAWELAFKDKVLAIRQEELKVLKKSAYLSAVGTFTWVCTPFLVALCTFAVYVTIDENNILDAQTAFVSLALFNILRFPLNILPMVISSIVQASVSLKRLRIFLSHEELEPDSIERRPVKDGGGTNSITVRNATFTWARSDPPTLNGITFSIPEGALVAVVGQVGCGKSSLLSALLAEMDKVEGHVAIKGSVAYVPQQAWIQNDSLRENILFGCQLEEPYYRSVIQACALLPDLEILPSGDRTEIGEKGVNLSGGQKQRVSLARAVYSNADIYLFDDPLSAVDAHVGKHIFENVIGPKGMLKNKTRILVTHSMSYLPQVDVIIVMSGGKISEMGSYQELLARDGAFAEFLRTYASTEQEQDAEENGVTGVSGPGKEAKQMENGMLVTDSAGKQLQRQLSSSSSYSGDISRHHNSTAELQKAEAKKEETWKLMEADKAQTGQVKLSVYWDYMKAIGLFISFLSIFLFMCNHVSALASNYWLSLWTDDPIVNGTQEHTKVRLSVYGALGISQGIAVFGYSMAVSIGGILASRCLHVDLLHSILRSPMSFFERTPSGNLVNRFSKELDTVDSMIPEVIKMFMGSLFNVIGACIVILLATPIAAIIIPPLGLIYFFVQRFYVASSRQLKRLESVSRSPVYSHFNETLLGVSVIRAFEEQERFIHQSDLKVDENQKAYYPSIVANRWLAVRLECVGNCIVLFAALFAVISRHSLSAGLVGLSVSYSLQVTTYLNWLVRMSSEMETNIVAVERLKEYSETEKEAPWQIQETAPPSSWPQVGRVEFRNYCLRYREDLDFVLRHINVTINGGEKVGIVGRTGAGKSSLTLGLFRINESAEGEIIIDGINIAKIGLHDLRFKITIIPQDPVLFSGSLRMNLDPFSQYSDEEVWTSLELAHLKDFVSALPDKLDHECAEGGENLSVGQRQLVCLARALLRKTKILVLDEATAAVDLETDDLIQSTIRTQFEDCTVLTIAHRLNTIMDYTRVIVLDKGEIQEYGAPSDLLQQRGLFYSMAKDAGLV
Procedure: as §1

[1] = system: murine and human cells expressing MRP; conditions: cited from earlier work

MRP1 variants, sequence (P33527 281-1531): as the sequence (P33527 281-1531, stated change not applied) above
MRP1 variants, sequence (P33527 with tags, fused parts or gaps): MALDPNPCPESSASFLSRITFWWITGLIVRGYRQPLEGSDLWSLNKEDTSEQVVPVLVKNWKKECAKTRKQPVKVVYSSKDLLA

SMILES: CCN1C(=O)C=CC1=O [N-ethylmaleimide]
- inhibition of nucleotide trapping (MRP1 variants): full inhibition
- inhibition of nucleotide trapping (MRP1-MDR1 chimeras): full inhibition

SMILES: CCN1C(=O)CC(SC[C@H](NC(=O)CC[C@H](N)C(=O)O)C(=O)NCC(=O)O)C1=O (stereo partly drawn) [NEM-GS]
- Km (co-expressed ΔMRP1+L0): ~400 µM
- initial rate of ATP-dependent NEM-GS transport (MRP1; 50 μM NEM-GS, MRP1 containing membranes): about 250 pmol mg^−1
- Km (MRP1; read-out: Km for transport of NEM-GS, wild-type MRP1, Sf9 membrane vesicles): 150 µM

SMILES: COc1ccc2c(c1)c(CC(=O)O)c(C)n2C(=O)c1ccc(Cl)cc1 [indomethacine]
- efflux of fluorescent dye BCECF [1]: effectively inhibited
